Test results taken from patent US7989494B2, “Polymorphs of N-hydroxy-3-[4-[[[2-(2-methyl-1H-indol-3-yl)ethyl]amino]methyl]phenyl]-2E-2-propenamide” (Novartis AG, priority 2006, dated 2011).
≈ marks a conversion by molar mass, not a printed value. Where a name gives a salt, the structure may show the parent alone. Read-outs that look alike come from different tables or passages of the source. One block for each compound: values may come before it.

Columns and labels:
Type in all cases: physicochemical
[1] = Hygroscopicity (descriptive)
[2] = Solubility in organic solvents; conditions: for solubility: organic solvent or mixture
[3] = Sorption-desorption isotherms, VTI humidity balance; conditions: for Sorption: 25° C., first sorption cycle; for Desorption: in % (unit assumed)
Method: Sorption-desorption isotherms were recorded by a VTI humidity balance. The salts of (N-hydroxy-3-[4-[[[2-(2-methyl-1H-indol-3-yl)ethyl]amino]methyl]phenyl]-2E-2-propenamide were first subjected to a drying step (25° C., r.h. below 2%, 2 hours) and then to a sorption-desorption-sorption sequence, with each RH % step retained for 3 hours. The free base was kept below 2% r.h. for several hours, and thus was completely dehydrated after the drying step. Only the data of the first sorption cycle are given in the table, since, in all cases, the two sorption cycles were very similar.

[4] = Aqueous solubility; conditions: water
[5] = Equilibration in solvents and aqueous media, solid form by XRPD
[6] = Intrinsic dissolution
[7] = Hydration/dehydration of free base forms on storage or under vacuum; conditions: for form change upon storage: storage at ambient conditions

hygroscopicity [1]: slightly hygroscopic
solubility in acetone, ethyl acetate and other common organic solvents ([2]; acetone, ethyl acetate and other common organic solvents): good solubility
solubility in alcohols ([2]; alcohols): limited solubility
moisture at 85% r.h. ([3]; 85% r.h.): less than 0.5%
Sorption ([3]; Sample RH % 1.5): 0%
Sorption ([3]; Sample RH % 5): 0.04%
Desorption ([3]; Sample RH % 5): −0.09
Sorption ([3]; Sample RH % 25): 0.11%
Desorption ([3]; Sample RH % 25): 0.03
Sorption ([3]; Sample RH % 50): 0.2%
Desorption ([3]; Sample RH % 50): 0.16
Sorption ([3]; Sample RH % 75): 0.31%
Desorption ([3]; Sample RH % 75): 0.36
Sorption ([3]; Sample RH % 85): 0.35%
Desorption ([3]; Sample RH % 85): 0.42
Sorption ([3]; Sample RH % 95): 0.49%
Desorption ([3]; Sample RH % 95): 0.49
aqueous solubility [4]: 3500 µg/mL
XRPD form after equilibration ([5]; 0.1 N HCl): chloride salt
XRPD form after equilibration ([5]; 2-Propanol): No change
XRPD form after equilibration ([5]; Acetone): Form C of the tartarate salt is obtained
XRPD form after equilibration ([5]; Acetone, listed as L-Tartarate): No change
XRPD form after equilibration ([5]; Ethanol): No change
XRPD form after equilibration ([5]; Ethyl Acetate): No change
XRPD form after equilibration ([5]; Methanol): converts to form C
XRPD form after equilibration ([5]; Methanol, listed as L-Tartarate): Changed to new
XRPD form after equilibration ([5]; pH = 6.8 buffer (phosphate)): free base
XRPD form after equilibration ([5]; water): No change
intrinsic dissolution [6]: good
Compound: Cc1[nH]c2ccccc2c1CCNCc1ccc(/C=C/C(=O)NO)cc1 [Form A of the L-tartarate salt, N-hydroxy-3-[4-[[[2-(2-methyl-1H-indol-3-yl)ethyl]amino]methyl]phenyl]-2E-2-propenamide]

solubility in hot ethanol-water mixture ([2]; hot ethanol-water mixture): soluble
form change upon storage ([7]; listed as Form C): spontaneously rehydrate to form HA
form change upon storage ([7]; listed as form C): rehydrate back to form HA
Compound: Cc1[nH]c2ccccc2c1CCNCc1ccc(/C=C/C(=O)NO)cc1 [free base form C, N-hydroxy-3-[4-[[[2-(2-methyl-1H-indol-3-yl)ethyl]amino]methyl]phenyl]-2E-2-propenamide]

hygroscopicity [1]: slightly hygroscopic
form observed on equilibration ([5]; at 0° C. and 10° C. and in acetone/water mixture): observed along with form HA
form after equilibration at pH 1 and 2 [5]: the chloride salt is formed
form conversion under most circumstances [5]: does not convert into any other form
Compound: Cc1[nH]c2ccccc2c1CCNCc1ccc(/C=C/C(=O)NO)cc1 (racemic) [Form A of the DL-lactate salt, N-hydroxy-3-[4-[[[2-(2-methyl-1H-indol-3-yl)ethyl]amino]methyl]phenyl]-2E-2-propenamide]
relative stability of the form ([5]; in water and in most organic solvents): more stable than the other forms of the DL-lactate salt

hygroscopicity [1]: very highly hygroscopic
Compound: Cc1[nH]c2ccccc2c1CCNCc1ccc(/C=C/C(=O)NO)cc1 [yellow powder, N-hydroxy-3-[4-[[[2-(2-methyl-1H-indol-3-yl)ethyl]amino]methyl]phenyl]-2E-2-propenamide]

hygroscopicity [1]: slightly hygroscopic
solubility ([2]; ethanol, read-out: solubility in ethanol): ~1500 µg/mL (≈ 4.29 mM)
solubility ([2]; ethyl acetate, read-out: solubility in ethyl acetate): ~5600 µg/mL (≈ 16 mM)
solubility ([2]; methanol, read-out: solubility in methanol): ~2300 µg/mL (≈ 6.58 mM)
aqueous solubility [4]: approximately 0.004 mg/mL
Compound: Cc1[nH]c2ccccc2c1CCNCc1ccc(/C=C/C(=O)NO)cc1 [free base form HA, N-hydroxy-3-[4-[[[2-(2-methyl-1H-indol-3-yl)ethyl]amino]methyl]phenyl]-2E-2-propenamide]
form change under vacuum ([7]; under vacuum even at ambient temperature): completely dehydrates and converts to form C

Sorption ([3]; Sample RH % 1.5): 0%
Sorption ([3]; Sample RH % 5): 0.06%
Desorption ([3]; Sample RH % 5): 4.11
Sorption ([3]; Sample RH % 25): 3.39%
Desorption ([3]; Sample RH % 25): 5.11
Sorption ([3]; Sample RH % 50): 5.17%
Desorption ([3]; Sample RH % 50): 5.21
Sorption ([3]; Sample RH % 75): 5.22%
Desorption ([3]; Sample RH % 75): 5.31
Sorption ([3]; Sample RH % 85): 5.24%
Desorption ([3]; Sample RH % 85): 5.33
Sorption ([3]; Sample RH % 95): 5.37%
Desorption ([3]; Sample RH % 95): 5.37
XRPD form after equilibration ([5]; 2-Propanol): No change
XRPD form after equilibration ([5]; Acetone): No change
XRPD form after equilibration ([5]; Ethanol): Changed to new
XRPD form after equilibration ([5]; Ethyl Acetate): No change
XRPD form after equilibration ([5]; Methanol): Changed to new
XRPD form after equilibration ([5]; pH = 6.8 buffer (phosphate)): No change
XRPD form after equilibration ([5]; water): No change
Compound: Cc1[nH]c2ccccc2c1CCNCc1ccc(/C=C/C(=O)NO)cc1 [Free Base, N-hydroxy-3-[4-[[[2-(2-methyl-1H-indol-3-yl)ethyl]amino]methyl]phenyl]-2E-2-propenamide]

aqueous solubility [4]: ~700 µg/mL
Compound: Cc1[nH]c2ccccc2c1CCNCc1ccc(/C=C/C(=O)NO)cc1 [Form A of the benzoate salt, N-hydroxy-3-[4-[[[2-(2-methyl-1H-indol-3-yl)ethyl]amino]methyl]phenyl]-2E-2-propenamide]

hygroscopicity [1]: non-hygroscopic
Compound: Cc1[nH]c2ccccc2c1CCNCc1ccc(/C=C/C(=O)NO)cc1 [white crystalline solid, N-hydroxy-3-[4-[[[2-(2-methyl-1H-indol-3-yl)ethyl]amino]methyl]phenyl]-2E-2-propenamide]

hygroscopicity [1]: slightly hygroscopic
XRPD form after equilibration ([5]; Methanol): converts to form SA
form after equilibration at pH 1 and 2 [5]: the chloride salt is formed
form conversion under most circumstances [5]: slowly converts into form A
Compound: Cc1[nH]c2ccccc2c1CCNCc1ccc(/C=C/C(=O)NO)cc1 (racemic) [Form HA of the DL-lactate salt, N-hydroxy-3-[4-[[[2-(2-methyl-1H-indol-3-yl)ethyl]amino]methyl]phenyl]-2E-2-propenamide]

hygroscopicity [1]: hygroscopic
Compound: Cc1[nH]c2ccccc2c1CCNCc1ccc(/C=C/C(=O)NO)cc1 [Form B of the tartarate salt, N-hydroxy-3-[4-[[[2-(2-methyl-1H-indol-3-yl)ethyl]amino]methyl]phenyl]-2E-2-propenamide]

aqueous solubility [4]: ~2000 µg/mL
Compound: Cc1[nH]c2ccccc2c1CCNCc1ccc(/C=C/C(=O)NO)cc1 [Form A of the acetate salt, N-hydroxy-3-[4-[[[2-(2-methyl-1H-indol-3-yl)ethyl]amino]methyl]phenyl]-2E-2-propenamide]

aqueous solubility [4]: ~1400 µg/mL
Compound: Cc1[nH]c2ccccc2c1CCNCc1ccc(/C=C/C(=O)NO)cc1 [Form A of the hemi-malate salt, N-hydroxy-3-[4-[[[2-(2-methyl-1H-indol-3-yl)ethyl]amino]methyl]phenyl]-2E-2-propenamide]

solubility in hot ethanol ([2]; listed as Form A): soluble
Compound: Cc1[nH]c2ccccc2c1CCNCc1ccc(/C=C/C(=O)NO)cc1 [free base form A, N-hydroxy-3-[4-[[[2-(2-methyl-1H-indol-3-yl)ethyl]amino]methyl]phenyl]-2E-2-propenamide]

aqueous solubility [4]: ~4000 µg/mL
Compound: Cc1[nH]c2ccccc2c1CCNCc1ccc(/C=C/C(=O)NO)cc1 [Form A of the propionate salt, N-hydroxy-3-[4-[[[2-(2-methyl-1H-indol-3-yl)ethyl]amino]methyl]phenyl]-2E-2-propenamide]

aqueous solubility [4]: ~6000 µg/mL
Compound: Cc1[nH]c2ccccc2c1CCNCc1ccc(/C=C/C(=O)NO)cc1 [Form A of the phosphate salt, N-hydroxy-3-[4-[[[2-(2-methyl-1H-indol-3-yl)ethyl]amino]methyl]phenyl]-2E-2-propenamide]

hygroscopicity [1]: visibly hygroscopic
Compound: Cc1[nH]c2ccccc2c1CCNCc1ccc(/C=C/C(=O)NO)cc1 [Form A of the sulfate salt, N-hydroxy-3-[4-[[[2-(2-methyl-1H-indol-3-yl)ethyl]amino]methyl]phenyl]-2E-2-propenamide]

solubility in hot ethanol ([2]; listed as form B): insoluble
Compound: Cc1[nH]c2ccccc2c1CCNCc1ccc(/C=C/C(=O)NO)cc1 [free base form B, N-hydroxy-3-[4-[[[2-(2-methyl-1H-indol-3-yl)ethyl]amino]methyl]phenyl]-2E-2-propenamide]

aqueous solubility [4]: ~400 µg/mL
Compound: Cc1[nH]c2ccccc2c1CCNCc1ccc(/C=C/C(=O)NO)cc1 [Form A of the hemi-fumarate salt, N-hydroxy-3-[4-[[[2-(2-methyl-1H-indol-3-yl)ethyl]amino]methyl]phenyl]-2E-2-propenamide]

aqueous solubility [4]: ~400 µg/mL
Compound: Cc1[nH]c2ccccc2c1CCNCc1ccc(/C=C/C(=O)NO)cc1 [Form A of the hemi-succinate salt, N-hydroxy-3-[4-[[[2-(2-methyl-1H-indol-3-yl)ethyl]amino]methyl]phenyl]-2E-2-propenamide]
